# How the values were obtained:
# [1] = target: fatty acid synthase from Saccharomyces cerevisiae (Saccharomyces cerevisiae, UniProt P19097); conditions: among chain length analogues maintaining the double bond positions; cited from earlier work
# [2] = test system: KASII; conditions: in comparison with cerulenin; cited from earlier work
# [3] = test system: E. coli strain M15/pREP4; test: Effect of expression of KAS II mutants on the fatty acid composition of E. coli (GC FAME); format: cell-based; conditions: for accumulation of 18:0: IPTG induced 2 hours; for long chain fatty acid accumulation due to L111A and F133A: in combination mutants
# Method: The mutant KAS II genes cloned behind an IPTG inducible T5 promoter (pQE30 vector, Qiagen) were transformed into E. coli strain M15/pREP4. E. coli M15/pREP4 strains containing no vector (−Vec), vector without insert (+Vec), or vectors expression wild-type KAS I or II or single or multiple engineered forms of KASII were grown to mid-log phase in LB media at 30° C. Expression was induced for 2 hours with IPTG (0.75 mM), cells were harvested, lyophilzed, and the lipids were extracted into toluene and derivatized by sodium methoxide and analyzed for fatty acid content by GC FAME analysis as described in Dehesh, et al. (1998) Plant J. 15:383-390.
# Chain of fatty acid synthase from Saccharomyces cerevisiae (P19097 whole entry): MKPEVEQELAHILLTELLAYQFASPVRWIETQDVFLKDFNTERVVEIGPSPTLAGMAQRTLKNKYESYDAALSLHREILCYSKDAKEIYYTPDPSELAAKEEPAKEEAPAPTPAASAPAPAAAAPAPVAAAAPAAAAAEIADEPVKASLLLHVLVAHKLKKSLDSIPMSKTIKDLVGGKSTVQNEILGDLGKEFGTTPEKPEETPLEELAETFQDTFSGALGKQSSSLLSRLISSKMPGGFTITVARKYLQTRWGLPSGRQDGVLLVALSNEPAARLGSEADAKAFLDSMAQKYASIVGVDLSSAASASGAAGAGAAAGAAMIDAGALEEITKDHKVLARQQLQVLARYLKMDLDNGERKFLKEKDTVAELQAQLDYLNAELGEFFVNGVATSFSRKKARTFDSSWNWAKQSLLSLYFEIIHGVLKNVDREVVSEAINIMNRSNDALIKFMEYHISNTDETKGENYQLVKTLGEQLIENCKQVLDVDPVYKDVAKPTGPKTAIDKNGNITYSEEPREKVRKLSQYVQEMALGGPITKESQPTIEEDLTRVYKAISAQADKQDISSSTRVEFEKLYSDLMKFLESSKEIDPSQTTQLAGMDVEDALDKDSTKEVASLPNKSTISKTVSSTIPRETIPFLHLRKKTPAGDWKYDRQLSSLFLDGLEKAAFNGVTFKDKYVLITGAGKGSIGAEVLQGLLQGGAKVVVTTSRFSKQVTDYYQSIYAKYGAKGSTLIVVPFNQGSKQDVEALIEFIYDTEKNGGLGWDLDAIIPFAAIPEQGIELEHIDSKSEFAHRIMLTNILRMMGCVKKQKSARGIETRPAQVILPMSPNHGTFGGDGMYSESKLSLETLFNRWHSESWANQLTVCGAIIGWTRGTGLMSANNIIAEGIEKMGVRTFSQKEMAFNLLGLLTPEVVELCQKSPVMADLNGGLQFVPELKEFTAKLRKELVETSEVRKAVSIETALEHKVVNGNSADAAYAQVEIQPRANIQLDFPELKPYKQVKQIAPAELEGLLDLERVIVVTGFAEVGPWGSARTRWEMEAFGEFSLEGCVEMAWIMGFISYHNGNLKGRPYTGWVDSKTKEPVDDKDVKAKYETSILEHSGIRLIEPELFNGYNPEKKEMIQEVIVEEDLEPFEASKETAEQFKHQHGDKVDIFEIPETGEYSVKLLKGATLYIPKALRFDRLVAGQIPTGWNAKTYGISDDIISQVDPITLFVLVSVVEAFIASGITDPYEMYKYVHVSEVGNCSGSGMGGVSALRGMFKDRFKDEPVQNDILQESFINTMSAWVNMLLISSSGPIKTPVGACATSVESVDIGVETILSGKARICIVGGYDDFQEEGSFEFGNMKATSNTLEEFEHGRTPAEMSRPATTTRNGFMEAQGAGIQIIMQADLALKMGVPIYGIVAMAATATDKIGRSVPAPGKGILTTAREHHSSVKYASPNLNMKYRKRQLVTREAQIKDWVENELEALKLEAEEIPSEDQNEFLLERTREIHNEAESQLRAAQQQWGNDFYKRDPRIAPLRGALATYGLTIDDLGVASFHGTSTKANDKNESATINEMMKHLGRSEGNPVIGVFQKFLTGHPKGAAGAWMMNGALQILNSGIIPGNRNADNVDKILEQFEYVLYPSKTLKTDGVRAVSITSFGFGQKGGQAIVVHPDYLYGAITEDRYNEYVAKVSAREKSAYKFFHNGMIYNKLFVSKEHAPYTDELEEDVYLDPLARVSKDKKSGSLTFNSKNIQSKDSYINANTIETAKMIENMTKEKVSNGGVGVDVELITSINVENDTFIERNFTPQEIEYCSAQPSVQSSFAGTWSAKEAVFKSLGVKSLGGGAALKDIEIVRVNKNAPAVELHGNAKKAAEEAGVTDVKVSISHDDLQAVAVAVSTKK
# Chain of fatty acid synthase from Saccharomyces cerevisiae (P07149 whole entry partner): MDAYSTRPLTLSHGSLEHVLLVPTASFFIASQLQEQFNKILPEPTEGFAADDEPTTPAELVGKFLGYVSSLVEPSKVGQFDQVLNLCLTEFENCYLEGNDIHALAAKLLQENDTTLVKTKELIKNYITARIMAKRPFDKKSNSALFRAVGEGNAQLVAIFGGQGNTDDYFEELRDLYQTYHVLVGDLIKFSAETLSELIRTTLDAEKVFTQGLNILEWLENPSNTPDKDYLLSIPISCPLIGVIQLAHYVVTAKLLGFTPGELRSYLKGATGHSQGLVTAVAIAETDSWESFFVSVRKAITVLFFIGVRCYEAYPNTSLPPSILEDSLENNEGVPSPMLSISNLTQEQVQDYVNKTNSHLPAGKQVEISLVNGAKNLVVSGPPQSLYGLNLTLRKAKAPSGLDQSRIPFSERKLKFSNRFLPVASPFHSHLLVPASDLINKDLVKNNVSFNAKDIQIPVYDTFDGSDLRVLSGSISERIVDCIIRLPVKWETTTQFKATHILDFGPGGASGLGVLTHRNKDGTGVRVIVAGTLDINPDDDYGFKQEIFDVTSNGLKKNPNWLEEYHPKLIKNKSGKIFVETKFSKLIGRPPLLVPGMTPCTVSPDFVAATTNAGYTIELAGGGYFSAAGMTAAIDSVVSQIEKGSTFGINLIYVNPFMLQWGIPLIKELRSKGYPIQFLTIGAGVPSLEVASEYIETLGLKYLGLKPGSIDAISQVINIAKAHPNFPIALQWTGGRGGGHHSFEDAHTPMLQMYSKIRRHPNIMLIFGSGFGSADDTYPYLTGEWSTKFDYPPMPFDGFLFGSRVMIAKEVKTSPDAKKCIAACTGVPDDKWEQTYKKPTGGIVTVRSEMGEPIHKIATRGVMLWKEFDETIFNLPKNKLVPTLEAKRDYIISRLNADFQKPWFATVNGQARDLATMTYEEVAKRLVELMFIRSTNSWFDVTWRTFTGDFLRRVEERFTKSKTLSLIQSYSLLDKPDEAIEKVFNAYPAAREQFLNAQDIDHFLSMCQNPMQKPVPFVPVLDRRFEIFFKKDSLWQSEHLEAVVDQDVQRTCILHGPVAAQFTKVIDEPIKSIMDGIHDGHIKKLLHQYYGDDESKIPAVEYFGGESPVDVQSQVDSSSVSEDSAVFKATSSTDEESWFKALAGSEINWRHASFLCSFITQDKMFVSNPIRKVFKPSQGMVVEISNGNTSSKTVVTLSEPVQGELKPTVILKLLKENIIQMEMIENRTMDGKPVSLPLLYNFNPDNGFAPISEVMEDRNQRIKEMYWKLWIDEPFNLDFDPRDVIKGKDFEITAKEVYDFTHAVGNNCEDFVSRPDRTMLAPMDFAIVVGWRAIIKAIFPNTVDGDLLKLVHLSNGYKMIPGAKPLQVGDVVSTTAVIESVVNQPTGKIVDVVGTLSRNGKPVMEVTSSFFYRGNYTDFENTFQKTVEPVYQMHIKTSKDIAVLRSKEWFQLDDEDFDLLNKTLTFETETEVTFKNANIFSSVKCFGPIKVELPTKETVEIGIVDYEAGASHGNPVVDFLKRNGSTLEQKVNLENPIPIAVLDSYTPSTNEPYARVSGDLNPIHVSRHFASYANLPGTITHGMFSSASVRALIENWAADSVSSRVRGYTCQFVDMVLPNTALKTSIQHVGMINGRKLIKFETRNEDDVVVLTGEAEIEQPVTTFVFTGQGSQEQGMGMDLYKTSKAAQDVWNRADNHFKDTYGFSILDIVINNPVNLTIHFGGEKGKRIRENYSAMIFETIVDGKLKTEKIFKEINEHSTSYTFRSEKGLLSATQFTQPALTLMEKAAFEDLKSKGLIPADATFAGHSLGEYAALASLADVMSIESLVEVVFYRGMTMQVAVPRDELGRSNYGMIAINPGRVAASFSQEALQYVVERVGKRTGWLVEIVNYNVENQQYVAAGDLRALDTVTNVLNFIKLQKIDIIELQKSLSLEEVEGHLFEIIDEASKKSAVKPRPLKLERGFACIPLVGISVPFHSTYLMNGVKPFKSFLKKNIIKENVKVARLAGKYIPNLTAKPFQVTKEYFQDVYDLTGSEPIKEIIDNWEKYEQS
molecule,measurement,setting,value
"C/C=C/C/C=C/CCC(=O)[C@H]1O[C@H]1C(N)=O [Cerulenin, cerulenin]",inhibitory activity,[1],highest inhibitory activity
CCCCCCCCC(=O)[C@H]1O[C@H]1C(N)=O [tetrahydrocerulenin],"inhibitory activity, less than cerulenin",[2],more than 2 orders of magnitude
F133A: E. coli KAS II protein with F133A mutation,accumulation of 18:0,[3]; FIG. 3,7%
I108A,long chain fatty acid accumulation due to L111A and F133A,[3],decrease the long chain fatty acid accumulation
I114A,long chain fatty acid accumulation due to L111A and F133A,[3],decrease the long chain fatty acid accumulation
L111A: E. coli KAS II protein with L111A mutation,accumulation of 18:0,[3]; FIG. 3,13%
"L197: E. coli KAS II protein with L197A mutation (protein, UniProt P0AAI5 2-413, looked up, variant L197A) 3-oxoacyl-[acyl-carrier-protei …: SKRRVVVTGLGMLSPVGNTVESTWKALLAGQSGISLIDHFDTSAYATKFAGLVKDFNCEDIISRKEQRKMDAFIQYGIVAGVQAMQDSGLEITEENATRIGAAIGSGIGGLGLIEENHTSLMNGGPRKISPFFVPSTIVNMVAGHLTIMYGLRGPSISIATACTSGVHNIGHAARIIAYGDADVMVAGGAEKASTPAGVGGFGAARALSTRNDNPQAASRPWDKERDGFVLGDGAGMLVLEEYEHAKKRGAKIYAELVGFGMSSDAYHMTSPPENGAGAALAMANALRDAGIEASQIGYVNAHGTSTPAGDKAEAQAVKTIFGEAASRVLVSSTKSMTGHLLGAAGAVESIYSILALRDQAVPPTINLDNPDEGCDLDFVPHEARQVSGMEYTLCNSFGFGGTNGSLIFKKI",accumulation of 18:0,[3]; FIG. 3,4%
"KAS II/L111A-F133A (protein, UniProt P0AAI5 2-413, looked up, variant L111A F133A) 3-oxoacyl-[acyl-carrier-protei …: SKRRVVVTGLGMLSPVGNTVESTWKALLAGQSGISLIDHFDTSAYATKFAGLVKDFNCEDIISRKEQRKMDAFIQYGIVAGVQAMQDSGLEITEENATRIGAAIGSGIGGAGLIEENHTSLMNGGPRKISPFAVPSTIVNMVAGHLTIMYGLRGPSISIATACTSGVHNIGHAARIIAYGDADVMVAGGAEKASTPLGVGGFGAARALSTRNDNPQAASRPWDKERDGFVLGDGAGMLVLEEYEHAKKRGAKIYAELVGFGMSSDAYHMTSPPENGAGAALAMANALRDAGIEASQIGYVNAHGTSTPAGDKAEAQAVKTIFGEAASRVLVSSTKSMTGHLLGAAGAVESIYSILALRDQAVPPTINLDNPDEGCDLDFVPHEARQVSGMEYTLCNSFGFGGTNGSLIFKKI",level of 20:0,[3]; FIG. 3,2%
same,level of 20:1,[3]; FIG. 3,4%
